Data taken from patent US20130237550A1, “ARYLVINYLAZACYCLOALKANE COMPOUNDS FOR CONSTIPATION” (TARGACEPT, INC., priority 2010, published 2013).

Columns and labels:
[1] = molecular target: α4β2 nueronal nicotinic receptors (Homo sapiens, UniProt P17787+P43681); test: Agonism at α4β2 neuronal nicotinic receptors (statement)
[2] = tested on: normal healthy subjects; test: Single (SRD) and multiple rising dose (MRD) studies in normal healthy subjects; format: in vivo, human
Experimental: (§1) In the MRD study, following doses 10 mg administered 4 times daily, nausea and vomiting typically occurred within 30 min of dosing—prior to significant systemic absorption. Diarrhea was typically observed more than 5 hours following dosing, when systemic concentrations were approximately 20% of Cmax values. […] Such pharmacodynamic GI motility responses appear to correlate primarily with local effects (possibly agonism of α3β4 receptors located on enterochromaffin cells) rather than systemic plasma concentrations.

[3] = as above; format: in vivo, human; conditions: oral; human plasma; read-out: systemic (plasma) half-life
Experimental: as §1

[4] = tested on: subjects with IBS-C; test: Randomized, double-blind, placebo controlled proof of principle study in IBS-C; format: in vivo, human
Experimental: A randomized, double-blind, placebo controlled, parallel group, proof of principle study to evaluate the safety, tolerability, and efficacy of Compound A in the treatment of Constipation-Predominant Irritable Bowel Syndrome was conducted.
The objectives of the study include the following: to assess the efficacy of Compound A in the treatment of Constipation Predominant Irritable Bowel Syndrome (IBS-C); and to assess the safety, tolerability and pharmacokinetic profile of Compound A in subjects with IBS-C when administered as a enteric coated capsule for a period of 28 days.
Subjects with constipation predominant irritable bowel syndrome (IBS-C) defined by: the ROME III criteria as: recurrent abdominal pain or discomfort at least 3 days per month, during the previous 3 months that is associated with 2 or more of the following: (1) relieved by defecation; (2) onset associated with a change in stool frequency; and/or (3) onset associated with a change in stool appearance.
Treatment included 5 mg daily (as Enteric Coated capsule) for 14 days followed by 5 mg BID for another 14 days. One endpoint includes global IBS symptom relief (7-point scale). Another endpoint includes bowel movement frequency, pain, bloating, straining, stool consistency, and frequency of rescue medication (laxative). Statistically, a was set to 0.1.

[5] = tested on: Taxol®-induced neuropathy; test: Taxol-induced (chemotherapy induced) neuropathy model; format: in vivo
[6] = molecular target: α3β4 nueronal nicotinic receptors (Homo sapiens, UniProt P30926+P32297); test: Agonism at α3β4 neuronal nicotinic receptors (statement)
Chain of α3β4 nueronal nicotinic receptors (P32297 32-505): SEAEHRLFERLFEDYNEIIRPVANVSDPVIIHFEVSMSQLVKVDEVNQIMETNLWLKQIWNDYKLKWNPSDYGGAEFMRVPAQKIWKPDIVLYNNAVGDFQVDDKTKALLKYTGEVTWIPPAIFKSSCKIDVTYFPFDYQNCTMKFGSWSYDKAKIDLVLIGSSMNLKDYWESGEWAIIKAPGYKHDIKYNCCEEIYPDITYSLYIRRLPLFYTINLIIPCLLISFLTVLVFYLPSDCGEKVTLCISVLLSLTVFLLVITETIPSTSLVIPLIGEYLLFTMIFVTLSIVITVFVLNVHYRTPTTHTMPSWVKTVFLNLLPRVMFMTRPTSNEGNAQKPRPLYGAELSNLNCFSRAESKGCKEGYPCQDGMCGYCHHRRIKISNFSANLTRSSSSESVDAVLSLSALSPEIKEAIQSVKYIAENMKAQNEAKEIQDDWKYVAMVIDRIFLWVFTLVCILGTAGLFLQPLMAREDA
Chain of α3β4 nueronal nicotinic receptors (P30926 22-498): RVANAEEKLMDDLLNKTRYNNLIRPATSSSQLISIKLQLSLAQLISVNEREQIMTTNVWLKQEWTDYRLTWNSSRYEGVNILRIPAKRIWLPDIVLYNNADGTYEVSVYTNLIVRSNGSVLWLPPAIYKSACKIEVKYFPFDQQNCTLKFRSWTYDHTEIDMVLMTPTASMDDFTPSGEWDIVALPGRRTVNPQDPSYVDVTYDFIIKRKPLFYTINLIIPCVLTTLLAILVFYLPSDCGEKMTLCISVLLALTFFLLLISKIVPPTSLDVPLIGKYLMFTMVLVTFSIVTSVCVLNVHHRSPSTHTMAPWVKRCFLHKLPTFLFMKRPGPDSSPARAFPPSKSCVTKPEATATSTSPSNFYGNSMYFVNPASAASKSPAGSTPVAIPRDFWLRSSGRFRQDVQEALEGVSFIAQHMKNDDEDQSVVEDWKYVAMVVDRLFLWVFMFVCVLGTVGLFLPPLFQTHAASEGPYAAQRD

[7] = tested on: rat Streptozotocin-induced diabetic neuropathy model; test: Streptozotocin-induced diabetic neuropathy (allodynia) model; format: in vivo; conditions: STZ rat; for pain sensitivity (allodynia testing of the hindpaw): Week 6, versus vehicle-treated animals
Text: Preclinically, in two animal models of neuropathic pain, repeat administration of Compound A produced significant analgesia. […] With reference to WO 08/157,365, the rat Streptozotocin-induced diabetic neuropathy model is a clinically relevant model of diabetic neuropathy, which replicates elements of the human situation diabetic condition such as high glucose levels, neuropathic pain in the extremities, and generally poor health.

Chain of α4β2 nueronal nicotinic receptors (P43681 29-627 limits assumed): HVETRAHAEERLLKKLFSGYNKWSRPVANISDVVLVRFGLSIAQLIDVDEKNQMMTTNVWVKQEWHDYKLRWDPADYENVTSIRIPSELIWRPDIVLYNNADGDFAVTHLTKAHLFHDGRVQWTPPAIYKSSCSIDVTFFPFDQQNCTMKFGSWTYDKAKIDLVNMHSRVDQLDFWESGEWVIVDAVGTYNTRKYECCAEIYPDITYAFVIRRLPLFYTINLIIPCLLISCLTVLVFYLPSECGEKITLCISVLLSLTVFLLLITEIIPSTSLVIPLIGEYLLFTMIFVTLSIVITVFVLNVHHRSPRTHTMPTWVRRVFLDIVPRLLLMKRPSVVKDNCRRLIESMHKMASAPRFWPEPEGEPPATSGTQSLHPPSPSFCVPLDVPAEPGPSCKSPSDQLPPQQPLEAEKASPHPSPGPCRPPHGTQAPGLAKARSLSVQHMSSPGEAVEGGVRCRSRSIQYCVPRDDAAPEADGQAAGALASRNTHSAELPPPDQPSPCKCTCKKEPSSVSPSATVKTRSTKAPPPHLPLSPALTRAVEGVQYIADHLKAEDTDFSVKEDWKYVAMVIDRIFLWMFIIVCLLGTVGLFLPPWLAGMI
Chain of α4β2 nueronal nicotinic receptors (P17787 26-502): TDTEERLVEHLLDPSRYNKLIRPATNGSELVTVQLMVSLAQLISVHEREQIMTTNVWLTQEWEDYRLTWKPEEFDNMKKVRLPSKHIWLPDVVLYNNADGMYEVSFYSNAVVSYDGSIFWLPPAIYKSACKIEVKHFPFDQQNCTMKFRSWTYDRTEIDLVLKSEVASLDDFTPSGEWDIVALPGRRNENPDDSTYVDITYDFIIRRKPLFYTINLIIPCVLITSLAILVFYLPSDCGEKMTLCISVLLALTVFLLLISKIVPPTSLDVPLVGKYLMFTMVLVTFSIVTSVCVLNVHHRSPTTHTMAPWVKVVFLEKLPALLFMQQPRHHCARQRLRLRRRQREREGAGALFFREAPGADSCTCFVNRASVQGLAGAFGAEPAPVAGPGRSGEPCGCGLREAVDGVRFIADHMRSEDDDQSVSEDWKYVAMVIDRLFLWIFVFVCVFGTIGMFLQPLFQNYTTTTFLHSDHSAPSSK

Compound	receptor activity type [1]	time of diarrhea after dosing ([2]; MRD study, 10 mg 4 times daily)	time of nausea and vomiting after dosing ([2]; MRD study, 10 mg 4 times daily) [min]	systemic concentration when diarrhea observed ([2]; MRD study, more than 5 hours following dosing)	most commonly observed adverse events ([2]; SRD and MRD studies, healthy subjects)	GI motility ([2]; healthy human subjects)	half-life [3] [h]	analgesic properties ([4]; IBS-C subjects)	most commonly reported adverse events ([4]; IBS-C subjects, 28 days)	severity of adverse events ([4]; IBS-C subjects, 28 days)	tolerability ([4]; enteric coated capsule, 5 mg daily 14 days then 5 mg BID 14 days)	spontaneous bowel movements (SBM) ([4]; versus placebo, maintained over at least 1 month)	SBM relative to Tegaserod, Lubiprostone and Linaclotide ([4]; week 4, FIG. 2, comparator data from literature)	analgesic effect (allodynia) ([5]; chronically administered)	receptor activity type [6]	blood glucose levels [7]	pain sensitivity (allodynia testing of the hindpaw) [7]	analgesic effect (allodynia) ([5]; acutely administered)
C(=C\[C@H]1CCNC1)/c1cncnc1 [Compound A, (R)-5-((E)-2-pyrrolidin-3-ylvinyl)pyrimidine]	agonist	more than 5 hours	≤ 30	approximately 20 % of Cmax values	nausea, vomiting and diarrhea	increase in GI motility	≤ 1	appears to lack analgesic properties	headache or gastrointestinal	mild to moderate	generally well tolerated	robust increases	compares favorably	analgesic effect	agonist	absence of any changes to blood glucose levels	significant reversal of this pain	
NCC1(CC(=O)O)CCCCC1 [Gabapentin, reference compound]																		analgesic effect
insulin: insulin-treated group in the STZ-rat model of diabetic neuropathy [reference compound]																reduced blood glucose levels	did not have significant improvement in pain sensitivity	
